The NIST ThermoML archive (doi:10.1016/j.jct.2016.04.014)
± gives the expanded uncertainty stated by the source.

Settings: Liquid, Vibrating tube method

`CCCCCCC` [heptane] showed a mass density (288.15 K, 100 kPa) of 688.4 ± 1.7 kg/m3, a mass density (288.15 K, 101 kPa) of 688.33 ± 0.25 kg/m3 and a mass density (288.15 K, 1000 kPa) of 689.2 ± 1.7 kg/m3. For the same compound, the mass density (288.15 K, 5000 kPa) was 692.5 ± 1.7 kg/m3, the mass density (288.15 K, 10000 kPa) was 696.5 ± 1.7 kg/m3 and the mass density (288.15 K, 15000 kPa) was 700.4 ± 1.7 kg/m3. The mass density (288.15 K, 20000 kPa) was 704.1 ± 1.8 kg/m3, the mass density (288.15 K, 25000 kPa) was 707.7 ± 1.8 kg/m3 and the mass density (288.15 K, 30000 kPa) was 711.1 ± 1.8 kg/m3. It also gave a mass density (288.15 K, 35000 kPa) of 714.3 ± 1.8 kg/m3, a mass density (288.15 K, 40000 kPa) of 717.4 ± 1.8 kg/m3 and a mass density (288.15 K, 45000 kPa) of 720.3 ± 1.8 kg/m3. The mass density (288.15 K, 50000 kPa) was 723.1 ± 1.8 kg/m3, the mass density (288.15 K, 55000 kPa) was 725.8 ± 1.9 kg/m3 and the mass density (288.15 K, 60000 kPa) was 728.2 ± 1.9 kg/m3. It also gave a mass density (293.15 K, 100 kPa) of 684.2 ± 1.7 kg/m3, a mass density (293.15 K, 101 kPa) of 684.11 ± 0.25 kg/m3 and a mass density (293.15 K, 1000 kPa) of 685 ± 1.7 kg/m3. It also gave a mass density (293.15 K, 5000 kPa) of 688.4 ± 1.7 kg/m3, a mass density (293.15 K, 10000 kPa) of 692.6 ± 1.7 kg/m3 and a mass density (293.15 K, 15000 kPa) of 696.5 ± 1.7 kg/m3. The mass density (293.15 K, 20000 kPa) was 700.4 ± 1.8 kg/m3, the mass density (293.15 K, 25000 kPa) was 704 ± 1.8 kg/m3 and the mass density (293.15 K, 30000 kPa) was 707.5 ± 1.8 kg/m3. The mass density (293.15 K, 35000 kPa) was 710.9 ± 1.8 kg/m3, the mass density (293.15 K, 40000 kPa) was 714 ± 1.8 kg/m3 and the mass density (293.15 K, 45000 kPa) was 717 ± 1.8 kg/m3. It also gave a mass density (293.15 K, 50000 kPa) of 719.9 ± 1.8 kg/m3, a mass density (293.15 K, 55000 kPa) of 722.5 ± 1.9 kg/m3 and a mass density (293.15 K, 60000 kPa) of 725.1 ± 1.9 kg/m3. The mass density (298.15 K, 100 kPa) was 679.9 ± 1.7 kg/m3, the mass density (298.15 K, 101 kPa) was 679.87 ± 0.25 kg/m3 and the mass density (298.15 K, 1000 kPa) was 680.7 ± 1.7 kg/m3. For the same compound, the mass density (298.15 K, 5000 kPa) was 684.3 ± 1.7 kg/m3, the mass density (298.15 K, 10000 kPa) was 688.6 ± 1.7 kg/m3 and the mass density (298.15 K, 15000 kPa) was 692.7 ± 1.7 kg/m3. It also gave a mass density (298.15 K, 20000 kPa) of 696.6 ± 1.8 kg/m3, a mass density (298.15 K, 25000 kPa) of 700.4 ± 1.8 kg/m3 and a mass density (298.15 K, 30000 kPa) of 704 ± 1.8 kg/m3. For the same compound, the mass density (298.15 K, 35000 kPa) was 707.4 ± 1.8 kg/m3, the mass density (298.15 K, 40000 kPa) was 710.7 ± 1.8 kg/m3 and the mass density (298.15 K, 45000 kPa) was 713.8 ± 1.8 kg/m3. For the same compound, the mass density (298.15 K, 50000 kPa) was 716.7 ± 1.8 kg/m3, the mass density (298.15 K, 55000 kPa) was 719.4 ± 1.9 kg/m3 and the mass density (298.15 K, 60000 kPa) was 721.9 ± 1.9 kg/m3. For the same compound, the mass density (303.15 K, 100 kPa) was 675.7 ± 1.7 kg/m3, the mass density (303.15 K, 101 kPa) was 675.6 ± 0.25 kg/m3 and the mass density (303.15 K, 1000 kPa) was 676.5 ± 1.7 kg/m3. For the same compound, the mass density (303.15 K, 5000 kPa) was 680.2 ± 1.7 kg/m3, the mass density (303.15 K, 10000 kPa) was 684.6 ± 1.7 kg/m3 and the mass density (303.15 K, 15000 kPa) was 688.9 ± 1.7 kg/m3. For the same compound, the mass density (303.15 K, 20000 kPa) was 693 ± 1.8 kg/m3, the mass density (303.15 K, 25000 kPa) was 696.8 ± 1.8 kg/m3 and the mass density (303.15 K, 30000 kPa) was 700.5 ± 1.8 kg/m3. For the same compound, the mass density (303.15 K, 35000 kPa) was 704 ± 1.8 kg/m3, the mass density (303.15 K, 40000 kPa) was 707.4 ± 1.8 kg/m3 and the mass density (303.15 K, 45000 kPa) was 710.5 ± 1.8 kg/m3. It also gave a mass density (303.15 K, 50000 kPa) of 713.5 ± 1.9 kg/m3, a mass density (303.15 K, 55000 kPa) of 716.2 ± 1.9 kg/m3 and a mass density (303.15 K, 60000 kPa) of 718.8 ± 1.9 kg/m3. It also gave a mass density (308.15 K, 100 kPa) of 671.4 ± 1.7 kg/m3, a mass density (308.15 K, 101 kPa) of 671.31 ± 0.25 kg/m3 and a mass density (308.15 K, 1000 kPa) of 672.2 ± 1.7 kg/m3. For the same compound, the mass density (308.15 K, 5000 kPa) was 676 ± 1.7 kg/m3, the mass density (308.15 K, 10000 kPa) was 680.6 ± 1.7 kg/m3 and the mass density (308.15 K, 15000 kPa) was 685 ± 1.7 kg/m3. For the same compound, the mass density (308.15 K, 20000 kPa) was 689.2 ± 1.8 kg/m3, the mass density (308.15 K, 25000 kPa) was 693.2 ± 1.8 kg/m3 and the mass density (308.15 K, 30000 kPa) was 697 ± 1.8 kg/m3. For the same compound, the mass density (308.15 K, 35000 kPa) was 700.6 ± 1.8 kg/m3, the mass density (308.15 K, 40000 kPa) was 704 ± 1.8 kg/m3 and the mass density (308.15 K, 45000 kPa) was 707.2 ± 1.8 kg/m3. For the same compound, the mass density (308.15 K, 50000 kPa) was 710.3 ± 1.9 kg/m3, the mass density (308.15 K, 55000 kPa) was 713.1 ± 1.9 kg/m3 and the mass density (308.15 K, 60000 kPa) was 715.7 ± 1.9 kg/m3. It also gave a mass density (313.15 K, 100 kPa) of 667.1 ± 1.7 kg/m3, a mass density (313.15 K, 101 kPa) of 667 ± 0.25 kg/m3 and a mass density (313.15 K, 1000 kPa) of 668 ± 1.7 kg/m3. The mass density (313.15 K, 5000 kPa) was 672 ± 1.7 kg/m3, the mass density (313.15 K, 10000 kPa) was 676.7 ± 1.7 kg/m3 and the mass density (313.15 K, 15000 kPa) was 681.2 ± 1.7 kg/m3. For the same compound, the mass density (313.15 K, 20000 kPa) was 685.5 ± 1.8 kg/m3, the mass density (313.15 K, 25000 kPa) was 689.6 ± 1.8 kg/m3 and the mass density (313.15 K, 30000 kPa) was 693.5 ± 1.8 kg/m3. It also gave a mass density (313.15 K, 35000 kPa) of 697.2 ± 1.8 kg/m3, a mass density (313.15 K, 40000 kPa) of 700.7 ± 1.8 kg/m3 and a mass density (313.15 K, 45000 kPa) of 704 ± 1.8 kg/m3. It also gave a mass density (313.15 K, 50000 kPa) of 707.1 ± 1.9 kg/m3, a mass density (313.15 K, 55000 kPa) of 709.9 ± 1.9 kg/m3 and a mass density (313.15 K, 60000 kPa) of 712.6 ± 1.9 kg/m3. For the same compound, the mass density (318.15 K, 100 kPa) was 662.7 ± 1.7 kg/m3, the mass density (318.15 K, 1000 kPa) was 663.6 ± 1.7 kg/m3 and the mass density (318.15 K, 5000 kPa) was 667.7 ± 1.7 kg/m3. The mass density (318.15 K, 10000 kPa) was 672.6 ± 1.7 kg/m3, the mass density (318.15 K, 15000 kPa) was 677.3 ± 1.7 kg/m3 and the mass density (318.15 K, 20000 kPa) was 681.8 ± 1.8 kg/m3. It also gave a mass density (318.15 K, 25000 kPa) of 686 ± 1.8 kg/m3, a mass density (318.15 K, 30000 kPa) of 690 ± 1.8 kg/m3 and a mass density (318.15 K, 35000 kPa) of 693.8 ± 1.8 kg/m3. It also gave a mass density (318.15 K, 40000 kPa) of 697.4 ± 1.8 kg/m3, a mass density (318.15 K, 45000 kPa) of 700.7 ± 1.8 kg/m3 and a mass density (318.15 K, 50000 kPa) of 703.9 ± 1.9 kg/m3. The mass density (318.15 K, 55000 kPa) was 706.8 ± 1.9 kg/m3, the mass density (318.15 K, 60000 kPa) was 709.5 ± 1.9 kg/m3 and the mass density (323.15 K, 100 kPa) was 658.3 ± 1.7 kg/m3. The mass density (323.15 K, 1000 kPa) was 659.3 ± 1.7 kg/m3, the mass density (323.15 K, 5000 kPa) was 663.5 ± 1.7 kg/m3 and the mass density (323.15 K, 10000 kPa) was 668.6 ± 1.7 kg/m3. It also gave a mass density (323.15 K, 15000 kPa) of 673.4 ± 1.7 kg/m3, a mass density (323.15 K, 20000 kPa) of 678 ± 1.8 kg/m3 and a mass density (323.15 K, 25000 kPa) of 682.4 ± 1.8 kg/m3. For the same compound, the mass density (323.15 K, 30000 kPa) was 686.5 ± 1.8 kg/m3 and the mass density (323.15 K, 35000 kPa) was 690.4 ± 1.8 kg/m3.
